pIC50, pKi: −log10 of the molar value. Read-outs that look alike come from different tables or passages of the source.
Legend:
[1] = tested on: Cells containing hepatitis C virus (HCV) replicon; test: HCV replicon cell assay; format: cell-based
Experimental: HCV Replicon Cell Assay Protocol:
Cells containing hepatitis C virus (HCV) replicon were maintained in DMEM containing 10% fetal bovine serum (FBS), 0.25 mg per ml of G418, with appropriate supplements (media A).
On day 1, replicon cell monolayer was treated with a trypsin: EDTA mixture, removed, and then media A was diluted into a final concentration of 100,000 cells per ml wit. 10,000 cells in 100 ul were plated into each well of a 96-well tissue culture plate, and cultured overnight in a tissue culture incubator at 37° C.
On day 2, compounds (in 100% DMSO) were serially diluted into DMEM containing 2% FBS, 0.5% DMSO, with appropriate supplements (media B). The final concentration of DMSO was maintained at 0.5% throughout the dilution series.
Media on the replicon cell monolayer was removed, and then media B containing various concentrations of compounds was added. Media B without any compound was added to other wells as no compound controls.
Cells were incubated with compound or 0.5% DMSO in media B for 48 hours in a tissue culture incubator at 37° C. At the end of the 48-hour incubation, the media was removed, and the replicon cell monolayer was washed once with PBS and stored at −80° C. prior to RNA extraction.
Culture plates with treated replicon cell monolayers were thawed, and a fixed amount of another RNA virus, such as Bovine Viral Diarrhea Virus (BVDV) was added to cells in each well. RNA extraction reagents (such as reagents from RNeasy kits) were added to the cells immediately to avoid degradation of RNA. Total RNA was extracted according the instruction of manufacturer with modification to improve extraction efficiency and consistency. Finally, total cellular RNA, including HCV replicon RNA, was eluted and stored at −80° C. until further processing.
A Taqman real-time RT-PCR quantification assay was set up with two sets of specific primers and probe. One was for HCV and the other was for BVDV. Total RNA extractants from treated HCV replicon cells was added to the PCR reactions for quantification of both HCV and BVDV RNA in the same PCR well. Experimental failure was flagged and rejected based on the level of BVDV RNA in each well. The level of HCV RNA in each well was calculated according to a standard curve run in the same PCR plate. The percentage of inhibition or decrease of HCV RNA level due to compound treatment was calculated using the DMSO or no compound control as 0% of inhibition. The IC50 (concentration at which 50% inhibition of HCV RNA level is observed) was calculated from the titration curve of any given compound.

HCV NS3-NS4A protease = target: T1, HCV NS3-NS4A protease (Hepatitis C virus genotype 1a, UniProt P27958); test: HCV enzyme assay (HPLC microbore separation of 5AB substrate and products); format: biochemical
T1 construct: The buffer, KK4A, DTT, and tNS3 were combined
Experimental: HCV Enzyme Assay Protocol
HPLC Microbore Method for Separation of 5AB Substrate and Products
• NH2-Glu-Asp-Val-Val-(alpha)Abu-Cys-Ser-Met-Ser-Tyr-COOH
A stock solution of 20 mM 5AB (or concentration of your choice) was made in DMSO w/0.2M DTT. This was stored in aliquots at −20 C.
Buffer: 50 mM HEPES, pH 7.8; 20% glycerol; 100 mM NaCl
Total assay volume was 100 μL
The buffer, KK4A, DTT, and tNS3 were combined; distributed 78 μL each into wells of 96 well plate. This was incubated at 30 C for ˜5-10 min.
2.5 μL of appropriate concentration of test compound was dissolved in DMSO (DMSO only for control) and added to each well. This was incubated at room temperature for 15 min.
Incubated for 20 min at 30 C.
Terminated reaction by addition of 25 μL of 10% TFA
Transferred 120 μL aliquots to HPLC vials
Separated SMSY product from substrate and KK4A by the following method:
Microbore Separation Method:
Instrumentation: Agilent 1100
• Degasser G1322A • Binary pump G1312A • Autosampler G1313A • Column thermostated chamber G1316A • Diode array detector G1315A Column: • Phenomenex Jupiter; 5 micron C18; 300 angstroms; 150×2 mm; P/O 00F-4053-B0 • Column thermostat: 40 C • Injection volume: 100 μL • Solvent A=HPLC grade water+0.1% TFA • Solvent B=HPLC grade acetonitrile+0.1% TFA
• Stop time: 17 min • Post-run time: 10 min.

[2] = 50% inhibition of HCV RNA level, 48-hour incubation, Taqman real-time RT-PCR, read-out: IC50

T1 sequence (P27958 1027-1208): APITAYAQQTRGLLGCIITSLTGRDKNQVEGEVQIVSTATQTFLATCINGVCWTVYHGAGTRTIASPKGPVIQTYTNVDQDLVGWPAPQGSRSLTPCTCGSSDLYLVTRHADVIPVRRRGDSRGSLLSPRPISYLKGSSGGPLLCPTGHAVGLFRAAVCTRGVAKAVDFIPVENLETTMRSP

SMILES	pIC50 [1, 2]	pKi (HCV NS3-NS4A protease)	pIC50 ([1]; 48 h)	pKi (HCV NS3-NS4A protease; 25 nM tNS3, 25 μM KK4A, 25 μM 5AB substrate, 20 min at 30 C, read-out: Ki)
CCC[C@H](NC(=O)[C@@H]1C[C@@H]2CCCC[C@@H]2N1C(=O)[C@@H](NC(=O)[C@@H](NC(=O)C(=O)NCc1ccccc1)C1CCCCC1)C(C)(C)C)C(=O)C(=O)NC1CC1 [Compound 2]	6.00 to 6.60	6.60 to 7.00		
CCC[C@H](NC(=O)[C@@H]1C[C@@H](Oc2ccc(Cl)cn2)CN1C(=O)[C@@H](NC(=O)[C@@H](NC(=O)C(=O)NCc1ccccc1)C1CCCCC1)C(C)(C)C)C(=O)C(=O)NC1CC1 [Compound 11]	> 7.00	6.60 to 7.00		
CCC[C@H](NC(=O)[C@@H]1C[C@@H](Oc2ccc(Cl)cn2)CN1C(=O)[C@@H](NC(=O)[C@@H](NC(=O)C(=O)NCC(C)C)C1CCCCC1)C(C)(C)C)C(=O)C(=O)NC1CC1 [Compound 12]	> 7.00	6.60 to 7.00		
CCC[C@H](NC(=O)[C@@H]1C[C@@H]2CCCC[C@@H]2N1C(=O)[C@@H](NC(=O)[C@@H](NC(=O)C(=O)NCC(C)C)C1CCCCC1)C(C)(C)C)C(=O)C(=O)NC1CC1 [Compound 6]	6.00 to 6.60	6.60 to 7.00		
CCC[C@H](NC(=O)C1C[C@@H](Oc2ccc(Cl)cn2)CN1C(=O)[C@@H](NC(=O)[C@@H](NC(=O)C(=O)NC1CC1)C1CCCCC1)C(C)(C)C)C(=O)C(=O)NC1CC1 (stereo partly drawn) [Compound 10]	> 7.00	6.60 to 7.00		
CCC[C@H](NC(=O)[C@@H]1C[C@@H]2CCCC[C@@H]2N1C(=O)[C@@H](NC(=O)[C@@H](NC(=O)C(=O)NC1CC1)C1CCCCC1)C(C)(C)C)C(=O)C(=O)NC1CC1 [Compound 4]	6.00 to 6.60	6.60 to 7.00		
CCC[C@H](NC(=O)[C@@H]1C[C@@H]2CCCC[C@@H]2N1C(=O)[C@@H](NC(=O)[C@@H](NC(=O)C(=O)NC(C)C)C1CCCCC1)C(C)(C)C)C(=O)C(=O)NC1CC1 [Compound 5]	6.00 to 6.60	6.60 to 7.00		
CCC[C@H](NC(=O)[C@@H]1C[C@@H]2CCCC[C@@H]2N1C(=O)[C@@H](NC(=O)[C@@H](NC(=O)C(=O)Nc1cc(C)on1)C1CCCCC1)C(C)(C)C)C(=O)C(=O)NC1CC1 [Compound 7]	6.00 to 6.60	6.60 to 7.00		
CCC[C@H](NC(=O)[C@@H]1C[C@@H]2CCCC[C@@H]2N1C(=O)[C@@H](NC(=O)[C@@H](NC(=O)C(=O)NC1CCCCC1)C1CCCCC1)C(C)(C)C)C(=O)C(=O)NC1CC1 [Compound 8]	6.00 to 6.60	6.60 to 7.00		
CCC[C@H](NC(=O)[C@@H]1CC2CCCCC2N1C(=O)[C@@H](NC(=O)[C@@H](NC(=O)C(=O)Nc1ccccc1)C1CCCCC1)C(C)(C)C)C(=O)C(=O)NC1CC1 (stereo partly drawn) [Compound 1]			6.00 to 6.60	6.60 to 7.00
CCC[C@H](NC(=O)[C@@H]1C[C@@H]2CCCC[C@@H]2N1C(=O)[C@@H](NC(=O)[C@@H](NC(=O)C(=O)NCC1CCCCC1)C1CCCCC1)C(C)(C)C)C(=O)C(=O)NC1CC1 [Compound 3]	6.00 to 6.60	6.60 to 7.00		
CCC[C@H](NC(=O)[C@@H]1C[C@@H]2CCCC[C@@H]2N1C(=O)[C@@H](NC(=O)[C@@H](NC(=O)C(=O)NC1CCCC1)C1CCCCC1)C(C)(C)C)C(=O)C(=O)NC1CC1 [Compound 9]	6.00 to 6.60	6.00 to 6.60		

Reference: US8426359B2, “Inhibitors of serine proteases, particularly HCV NS3-NS4A protease” (Vertex Pharmaceuticals Incorporated, priority 2003, dated 2013)
